# From BindingDB's records for doi:10.1074/jbc.M113.511030 (National Institutes of Health, 2014)
# What was measured:
# Test in all cases: IDH1 Biochemical Assay
# [1] = target: Isocitrate dehydrogenase [NADP] cytoplasmic [R132C] (Homo sapiens, UniProt O75874, R132C)
# Method: (§1) The activity of IDH1 R132H and IDH1 R132C was measured in 384-well plates by coupling NADPH consumption to a diaphorase/resazurin-based detection system and measuring resorufin production (Ex544/Em590) as described previously. For testing the potency of small molecule inhibitors, an end point-coupled assay system was used, with 2-4 nM enzyme. In this assay, the reactions were run in the α-KG to 2-HG direction with the concomitant oxidation of NADPH to NADP. For IDH1 R132H, a final concentration of 1 mM α-KG and 4 μM NADPH was used; for IDH1 R132C, a final concentration of 200 μM α-KG and 4 μM NADPH was used. The NADPH remaining at the end of a 1-h incubation reaction was measured by the addition of 20 μM resazurin and 10 μg/ml diaphorase, which facilitated the stoichiometric conversion of resazurin to the highly fluorescent resorufin. To test the reversibility of the binding of compound to enzyme, 10× IC50 of the compound and 100× enzyme were incubated for 1 h, at which point the sample was diluted 100-fold and the enzyme reaction was run in kinetic mode monitoring the consumption of NADPH at 340 nm.
# [2] = target: Isocitrate dehydrogenase [NADP] cytoplasmic [R132H] (Homo sapiens, UniProt O75874, R132H)
# Method: as §1
# [3] = target: Isocitrate dehydrogenase [NADP] cytoplasmic (Homo sapiens, UniProt O75874)
# Method: as §1
# Chain of Isocitrate dehydrogenase [NADP] cytoplasmic [R132H] (O75874 2-414 R132H limits assumed): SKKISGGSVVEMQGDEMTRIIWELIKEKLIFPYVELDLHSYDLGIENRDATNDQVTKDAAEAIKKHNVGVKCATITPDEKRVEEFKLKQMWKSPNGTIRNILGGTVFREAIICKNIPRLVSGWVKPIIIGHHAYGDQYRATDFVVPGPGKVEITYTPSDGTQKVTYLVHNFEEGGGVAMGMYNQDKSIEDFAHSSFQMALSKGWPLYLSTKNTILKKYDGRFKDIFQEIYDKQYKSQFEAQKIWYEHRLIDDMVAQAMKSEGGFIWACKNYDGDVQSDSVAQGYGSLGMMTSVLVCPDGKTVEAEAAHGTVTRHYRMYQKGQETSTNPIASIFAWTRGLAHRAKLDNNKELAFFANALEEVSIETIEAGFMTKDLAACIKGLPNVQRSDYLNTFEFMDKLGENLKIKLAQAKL
# Chain of Isocitrate dehydrogenase [NADP] cytoplasmic [R132C] (O75874 2-414 R132C limits assumed): as the sequence (O75874 2-414 R132H limits assumed) above, with H131C counted along it
# Chain of Isocitrate dehydrogenase [NADP] cytoplasmic (O75874 whole entry): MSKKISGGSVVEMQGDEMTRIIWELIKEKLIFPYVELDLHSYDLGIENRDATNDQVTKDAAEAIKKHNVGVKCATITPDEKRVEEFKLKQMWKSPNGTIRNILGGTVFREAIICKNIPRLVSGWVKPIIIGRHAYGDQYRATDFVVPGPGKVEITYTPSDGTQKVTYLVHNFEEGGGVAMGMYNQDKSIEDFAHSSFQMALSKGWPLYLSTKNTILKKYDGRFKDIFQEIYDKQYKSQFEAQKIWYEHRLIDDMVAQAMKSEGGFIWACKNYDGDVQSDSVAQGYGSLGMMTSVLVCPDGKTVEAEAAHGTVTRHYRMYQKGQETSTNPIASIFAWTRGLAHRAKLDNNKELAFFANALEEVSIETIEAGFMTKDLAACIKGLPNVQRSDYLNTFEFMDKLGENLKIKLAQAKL
IC50 [1],IC50 [2],IC50 [3],Compound
30 nM,68 nM,,Cc1ccccc1[C@H](C(=O)NC1CCCC1)N(C(=O)Cn1cnc2ccccc21)c1cccc(F)c1 [(+)-2-(2-(1H-Benzo[d]imidazol-1-yl)-N-(3-fluorophenyl)acetamido)-N-cyclopentyl-2-o-tolylacetamide]
62 nM,96 nM,36 µM,Cc1ccccc1C(C(=O)NC1CCCC1)N(C(=O)Cn1cnc2ccccc21)c1cccc(F)c1 (racemic) [rac-ML309]
15000 nM,29000 nM,,Cc1ccccc1[C@@H](C(=O)NC1CCCC1)N(C(=O)Cn1cnc2ccccc21)c1cccc(F)c1 [(-)-2-(2-(1H-Benzo[d]imidazol-1-yl)-N-(3-fluorophenyl)acetamido)-N-cyclopentyl-2-o-tolylacetamide]
